{"source": "patent US7271165B2", "about": "“Rifamycin analogs and uses thereof” (priority 2003, dated 2007)", "key": {"[1]": {"tested_on": "H. flu", "assay_type": "cell-based, H. influenza", "details": "H. flu"}, "[2]": {"tested_on": "S. pneumo.", "assay": "MIC assay, S. pneumo.", "assay_type": "cell-based, Streptococcus pneumoniae"}, "[3]": {"tested_on": "E. faecalis", "assay": "MIC assay, E. faecalis", "assay_type": "cell-based, Enterococcus faecalis"}, "[4]": {"tested_on": "S. aureus", "assay": "MIC assay, S. aureus", "assay_type": "cell-based, Staphylococcus aureus"}, "[5]": {"tested_on": "E coli", "assay": "MIC assay, E coli", "assay_type": "cell-based"}}}
{"molecule": "3′-hydroxy-5′-(4-ethylcarbamyl-1-piperidinyl)benzoxazinorifamycin [Compound 1]", "values": [{"measurement": "MIC (μg/mL) H. flu", "setting": "[1]", "result": 2, "unit": "µg/mL"}, {"measurement": "MIC (μg/mL) S. pneumo.", "setting": "[2]", "result": 0.00025, "unit": "µg/mL"}, {"measurement": "MIC (μg/mL) E. faecalis", "setting": "[3]", "result": 2, "unit": "µg/mL"}, {"measurement": "MIC (μg/mL) S. aureus", "setting": "[4]", "result": 0.008, "unit": "µg/mL"}, {"measurement": "MIC (μg/mL) E coli", "setting": "[5]", "result": ">8", "unit": "µg/mL"}]}
{"molecule": "25-O-deacetyl-5′-[(8aR)octahydropyrrolo[1,2-a]pyrazin-2-yl]benzthiazinorifamycin [Compound 78]", "values": [{"measurement": "MIC (μg/mL) H. flu", "setting": "[1]", "result": 0.12, "unit": "µg/mL"}, {"measurement": "MIC (μg/mL) S. pneumo.", "setting": "[2]", "result": 0.00012, "unit": "µg/mL"}, {"measurement": "MIC (μg/mL) E. faecalis", "setting": "[3]", "result": 0.12, "unit": "µg/mL"}, {"measurement": "MIC (μg/mL) S. aureus", "setting": "[4]", "result": 0.002, "unit": "µg/mL"}, {"measurement": "MIC (μg/mL) E coli", "setting": "[5]", "result": 4, "unit": "µg/mL"}]}
{"molecule": "CCOC(=O)N1CCCC2CN(c3cc(O)c4nc5c6c7c8c(C)c(O)c6c(=O)c(c-5oc4c3)NC(=O)C(C)=CC=CC(C)C(O)C(C)C(O)C(C)C(O)C(C)C(OC)C=COC(C)(O8)C7=O)CC21", "note": "(mixture of isomers) [Compound 42, 25-O-deacetyl-3′-hydroxy-5′-[1-ethylcarbamyl-(4aR,7aR)-octahydro-6H-pyrrolo [3,4-b]pyridin-6-yl]benzoxazinorifamycin]", "values": [{"measurement": "MIC (μg/mL) H. flu", "setting": "[1]", "result": 0.5, "unit": "µg/mL"}, {"measurement": "MIC (μg/mL) S. pneumo.", "setting": "[2]", "result": 0.00012, "unit": "µg/mL"}, {"measurement": "MIC (μg/mL) E. faecalis", "setting": "[3]", "result": 2, "unit": "µg/mL"}, {"measurement": "MIC (μg/mL) S. aureus", "setting": "[4]", "result": 0.008, "unit": "µg/mL"}, {"measurement": "MIC (μg/mL) E coli", "setting": "[5]", "result": 8, "unit": "µg/mL"}]}
{"molecule": "CCOC(=O)N1CCCC2CN(c3cc(O)c4nc5c6c7c8c(C)c(O)c6c(=O)c(c-5oc4c3)NC(=O)C(C)=CC=CC(C)C(O)C(C)C(O)C(C)C(OC(C)=O)C(C)C(OC)C=COC(C)(O8)C7=O)CC21", "note": "(single isomer, unassigned) [Compound 40]", "values": [{"measurement": "MIC (μg/mL) H. flu", "setting": "[1]", "result": 0.5, "unit": "µg/mL"}, {"measurement": "MIC (μg/mL) S. pneumo.", "setting": "[2]", "result": 0.008, "unit": "µg/mL"}, {"measurement": "MIC (μg/mL) E. faecalis", "setting": "[3]", "result": 1, "unit": "µg/mL"}, {"measurement": "MIC (μg/mL) S. aureus", "setting": "[4]", "result": 0.06, "unit": "µg/mL"}, {"measurement": "MIC (μg/mL) E coli", "setting": "[5]", "result": ">8", "unit": "µg/mL"}]}
{"molecule": "COC1C=COC2(C)Oc3c(C)c(O)c4c(=O)c(c5oc6cc(N7CC8C(C7)C8NC(=O)OCC[Si](C)(C)C)cc(O)c6nc-5c4c3C2=O)NC(=O)C(C)=CC=CC(C)C(O)C(C)C(O)C(C)C(OC(C)=O)C1C", "note": "[Compound 2, 3′-hydroxy-5′-[6-(2-trimethylsilyl)ethylcarbamyl-(1R,5S)-3-azabicyclo[3.1.0]hex-3-yl]benzoxazinorifamycin]", "values": [{"measurement": "MIC (μg/mL) H. flu", "setting": "[1]", "result": ">8", "unit": "µg/mL"}, {"measurement": "MIC (μg/mL) S. pneumo.", "setting": "[2]", "result": 0.03, "unit": "µg/mL"}, {"measurement": "MIC (μg/mL) E. faecalis", "setting": "[3]", "result": ">8", "unit": "µg/mL"}, {"measurement": "MIC (μg/mL) S. aureus", "setting": "[4]", "result": 1, "unit": "µg/mL"}, {"measurement": "MIC (μg/mL) E coli", "setting": "[5]", "result": ">8", "unit": "µg/mL"}]}
{"molecule": "CCOC(=O)NC1CCN(c2cc(O)c3nc4c5c6c7c(C)c(O)c5c(=O)c(c-4oc3c2)NC(=O)/C(C)=C\\C=C\\[C@H](C)[C@H](O)[C@@H](C)[C@@H](O)[C@@H](C)[C@H](O)[C@H](C)[C@@H](OC)/C=C/O[C@@](C)(O7)C6=O)CC1", "note": "[Compound 3, 25-O-deacetyl-3′-hydroxy-5′-(4-ethylcarbamyl-1-piperidinyl)benzoxazinorifamycin]", "values": [{"measurement": "MIC (μg/mL) H. flu", "setting": "[1]", "result": 0.25, "unit": "µg/mL"}, {"measurement": "MIC (μg/mL) S. pneumo.", "setting": "[2]", "result": 0.0005, "unit": "µg/mL"}, {"measurement": "MIC (μg/mL) E. faecalis", "setting": "[3]", "result": 0.12, "unit": "µg/mL"}, {"measurement": "MIC (μg/mL) S. aureus", "setting": "[4]", "result": 0.03, "unit": "µg/mL"}, {"measurement": "MIC (μg/mL) E coli", "setting": "[5]", "result": 4, "unit": "µg/mL"}]}
{"molecule": "COC1C=COC2(C)Oc3c(C)c(O)c4c(=O)c(c5oc6cc(N7CC8C(N)C8C7)cc(O)c6nc-5c4c3C2=O)NC(=O)C(C)=CC=CC(C)C(O)C(C)C(O)C(C)C(OC(C)=O)C1C", "note": "[Compound 4, 3′-hydroxy-5′-[6-amino-(1R,5S)-3-azabicyclo[3.1.0]hex-3-yl]benzoxazinorifamycin]", "values": [{"measurement": "MIC (μg/mL) H. flu", "setting": "[1]", "result": 0.25, "unit": "µg/mL"}, {"measurement": "MIC (μg/mL) S. pneumo.", "setting": "[2]", "result": 0.00025, "unit": "µg/mL"}, {"measurement": "MIC (μg/mL) E. faecalis", "setting": "[3]", "result": 0.5, "unit": "µg/mL"}, {"measurement": "MIC (μg/mL) S. aureus", "setting": "[4]", "result": 0.03, "unit": "µg/mL"}, {"measurement": "MIC (μg/mL) E coli", "setting": "[5]", "result": ">8", "unit": "µg/mL"}]}
{"molecule": "CO[C@H]1/C=C/O[C@@]2(C)Oc3c(C)c(O)c4c(=O)c(c5oc6cc(N7C[C@@H]8CCCN[C@@H]8C7)cc(O)c6nc-5c4c3C2=O)NC(=O)/C(C)=C\\C=C\\[C@H](C)[C@H](O)[C@@H](C)[C@@H](O)[C@@H](C)[C@H](OC(C)=O)[C@@H]1C", "note": "[Compound 5, 3′-hydroxy-5′-[(4aS,7aS)-octahydro-6H-pyrrolo[3,4-b]pyridin-6-yl]benzoxazinorifamycin]", "values": [{"measurement": "MIC (μg/mL) H. flu", "setting": "[1]", "result": 2, "unit": "µg/mL"}, {"measurement": "MIC (μg/mL) S. pneumo.", "setting": "[2]", "result": 0.00025, "unit": "µg/mL"}, {"measurement": "MIC (μg/mL) E. faecalis", "setting": "[3]", "result": 0.5, "unit": "µg/mL"}, {"measurement": "MIC (μg/mL) S. aureus", "setting": "[4]", "result": 0.015, "unit": "µg/mL"}, {"measurement": "MIC (μg/mL) E coli", "setting": "[5]", "result": 8, "unit": "µg/mL"}]}
{"molecule": "CO[C@H]1/C=C/O[C@@]2(C)Oc3c(C)c(O)c4c(=O)c(c5oc6cc(N7C[C@@H]8CCCN[C@@H]8C7)cc(O)c6nc-5c4c3C2=O)NC(=O)/C(C)=C\\C=C\\[C@H](C)[C@H](O)[C@@H](C)[C@@H](O)[C@@H](C)[C@H](O)[C@@H]1C", "note": "[Compound 7, 25-O-deacetyl-3′-hydroxy-5′-[(4aS,7aS)-octahydro-6H-pyrrolo[3,4-b]pyridin-6-yl]benzoxazinorifamycin]", "values": [{"measurement": "MIC (μg/mL) H. flu", "setting": "[1]", "result": 4, "unit": "µg/mL"}, {"measurement": "MIC (μg/mL) S. pneumo.", "setting": "[2]", "result": 0.004, "unit": "µg/mL"}, {"measurement": "MIC (μg/mL) E. faecalis", "setting": "[3]", "result": 4, "unit": "µg/mL"}, {"measurement": "MIC (μg/mL) S. aureus", "setting": "[4]", "result": 0.12, "unit": "µg/mL"}, {"measurement": "MIC (μg/mL) E coli", "setting": "[5]", "result": ">8", "unit": "µg/mL"}]}
